Measured values as given in patent publication US9833451B2 (priority 2007, dated 2017).
Structures can show the parent of a compound that is named as a salt. Where two headings read alike, the source gives them in different places.

Key:
[1] = biological target: Adrenergic receptor subtype β1 (Homo sapiens, UniProt P08588); details: read-out: Affinity IC50; cited from earlier work
[2] = biological target: Serotonin receptor subtype 3 (Homo sapiens, UniProt P46098); details: read-out: Affinity IC50; cited from earlier work
[3] = biological target: Serotonin receptor subtype 5; details: read-out: Affinity IC50; cited from earlier work
[4] = test system: migraine pain in subjects; test: Relief from migraine pain after inhaled DHE (FIG. 1); type: in vivo, human; details: administration giving the two lower peak plasma profiles of FIG. 2
5-HT2B receptors = 5-HT2B receptors (Homo sapiens, UniProt P41595); test: Selective agonism at various concentrations of DHE (FIG. 5); type: biochemical; details: orally-inhaled DHE concentrations (6.25 nM at Cmax of 4 inhalations)
From the text: (§1) Agonists of 5-HT1B subtype receptors are known to be useful in the treatment of migraine and associated symptoms. 5-HT2B receptors are known to play a triggering role in the onset of migraine.

5-HT1B receptors = 5-HT1B receptors (Homo sapiens, UniProt P28222); test: as above; type: biochemical; details: 5 μm control, 77.6 nM (IV Cmax), 6.25 nM (4 inhalations Cmax), 0.25 nM
From the text: as §1

[5] = biological target: Dopaminergic receptor subtype D4 (Homo sapiens, UniProt P21917); details: read-out: Affinity IC50; cited from earlier work
[6] = biological target: Serotonin receptor subtype 1B (Homo sapiens, UniProt P28222); details: read-out: Affinity IC50; cited from earlier work
clinical = details: for Cmax: human, in vivo; for Concentration equivalent to peak plasma concentration (Cmax): human plasma
From the text: The inhaled doses represent the expected systemic delivered dose and were estimated from the fine particle dose delivered ex-actuator.

5-HT1D receptors = 5-HT1D receptors (Homo sapiens, UniProt P28221); test: Radioligand receptor binding at concentrations equivalent to Cmax; details: following inhalation, compared with IV
From the text: (§2) “(h)” represents cloned human receptor subtypes.
(§3) Table 2 presents in vitro concentrations equivalent to Cmax.

5-HT1B = test: as above
From the text: as §2, §3

5-HT3 receptors [7] = biological target: T1, 5-HT3 receptors (Homo sapiens, UniProt P46098); test: as above; details: all DHE delivery routes investigated, <20% classed as inactive
From the text: as §2, §3

[8] = biological target: Dopaminergic receptor subtype D2 (Homo sapiens, UniProt P14416); details: read-out: Affinity IC50; cited from earlier work
[9] = biological target: Serotonin receptor subtype 1A (Homo sapiens, UniProt P08908); details: read-out: Affinity IC50; cited from earlier work
[10] = biological target: Serotonin receptor subtype 1F (Homo sapiens, UniProt P30939); details: read-out: Affinity IC50; cited from earlier work
[11] = biological target: Serotonin receptor subtype 1D (Homo sapiens, UniProt P28221); details: read-out: Affinity IC50; cited from earlier work
[12] = biological target: Adrenergic receptor subtype α1b (Homo sapiens, UniProt P35368); details: read-out: Affinity IC50; cited from earlier work
muscarinic (M) receptors = details: cited from earlier work
[13] = biological target: Dopaminergic receptor subtype D3 (Homo sapiens, UniProt P35462); details: read-out: Affinity IC50; cited from earlier work
5-HT3 receptors [14] = biological target: T1, 5-HT3 receptors; test: Functional assays at 5-HT3 receptors; type: biochemical
From the text: 5-HT3 receptors are known to be implicated in nausea. Antagonists at these receptors, such as ondansetron and granisetron prevent chemotherapy-induced nausea and vomiting.

[15] = biological target: Adrenergic receptor subtype β3 (Homo sapiens, UniProt P13945); details: read-out: Affinity IC50; cited from earlier work
[16] = given subcutaneously at a concentration of only 1.5 mM; cited from earlier work
[17] = Side effects in clinical study of IV versus inhaled DHE; type: in vivo, human
From the text: The inventors have discovered that these slightly delayed, lower peak pharmacokinetic profiles are associated with minimized side effects.

[18] = biological target: Serotonin receptor subtype 1E (Homo sapiens, UniProt P28566); details: read-out: Affinity IC50; cited from earlier work
D2 receptor = D2 receptor (Homo sapiens, UniProt P14416); test: Radioligand receptor binding at concentrations equivalent to Cmax
From the text: “(h)” represents cloned human receptor subtypes and “NS” indicates non-specific binding.
as §3

[19] = biological target: Adrenergic receptor subtype α1a (Homo sapiens, UniProt P35348); details: read-out: Affinity IC50; cited from earlier work
[20] = biological target: Serotonin receptor subtype 2C (Homo sapiens, UniProt P28335); details: read-out: Affinity IC50; cited from earlier work
[21] = pulmonary delivery; cited from earlier work
[22] = cited from earlier work
[23] = after inhalable administration of DHE

D2 receptor, sequence (P14416 whole entry): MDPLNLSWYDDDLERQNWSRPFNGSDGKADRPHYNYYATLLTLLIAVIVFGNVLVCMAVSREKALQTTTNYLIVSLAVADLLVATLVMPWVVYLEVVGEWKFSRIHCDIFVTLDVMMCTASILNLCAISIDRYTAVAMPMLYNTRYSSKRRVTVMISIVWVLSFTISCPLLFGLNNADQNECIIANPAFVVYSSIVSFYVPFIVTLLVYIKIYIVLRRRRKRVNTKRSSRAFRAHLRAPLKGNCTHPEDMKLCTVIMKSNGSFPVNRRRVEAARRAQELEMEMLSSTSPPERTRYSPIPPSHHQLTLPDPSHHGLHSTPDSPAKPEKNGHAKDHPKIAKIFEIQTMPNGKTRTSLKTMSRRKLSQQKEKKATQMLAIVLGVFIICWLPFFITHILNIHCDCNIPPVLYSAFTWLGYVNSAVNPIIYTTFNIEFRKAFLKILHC
T1 sequence (P46098 24-478): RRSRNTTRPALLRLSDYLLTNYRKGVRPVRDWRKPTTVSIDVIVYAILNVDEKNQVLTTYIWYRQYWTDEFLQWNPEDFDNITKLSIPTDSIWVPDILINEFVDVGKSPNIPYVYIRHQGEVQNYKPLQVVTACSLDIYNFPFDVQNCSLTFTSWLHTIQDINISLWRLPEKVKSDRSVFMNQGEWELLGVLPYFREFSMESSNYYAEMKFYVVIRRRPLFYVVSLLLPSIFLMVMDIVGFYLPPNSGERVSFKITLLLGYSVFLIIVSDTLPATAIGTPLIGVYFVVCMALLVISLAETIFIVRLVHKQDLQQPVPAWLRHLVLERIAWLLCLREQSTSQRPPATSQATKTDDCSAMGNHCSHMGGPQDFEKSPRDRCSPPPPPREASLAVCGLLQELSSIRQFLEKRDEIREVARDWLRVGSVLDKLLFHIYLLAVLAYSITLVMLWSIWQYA
5-HT2B receptors, sequence (P41595 whole entry): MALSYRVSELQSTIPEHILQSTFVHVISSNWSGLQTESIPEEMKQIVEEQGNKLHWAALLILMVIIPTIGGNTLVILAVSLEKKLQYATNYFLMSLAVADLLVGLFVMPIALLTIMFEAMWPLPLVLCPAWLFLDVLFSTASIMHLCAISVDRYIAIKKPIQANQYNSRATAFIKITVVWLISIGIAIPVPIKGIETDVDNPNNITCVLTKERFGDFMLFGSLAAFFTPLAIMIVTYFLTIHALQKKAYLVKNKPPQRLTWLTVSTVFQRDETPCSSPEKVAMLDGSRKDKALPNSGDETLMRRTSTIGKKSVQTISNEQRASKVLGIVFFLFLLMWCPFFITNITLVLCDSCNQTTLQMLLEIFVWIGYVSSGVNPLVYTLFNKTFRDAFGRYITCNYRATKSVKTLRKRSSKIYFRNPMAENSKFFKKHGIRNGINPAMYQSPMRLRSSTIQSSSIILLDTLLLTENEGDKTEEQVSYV
Dopaminergic receptor subtype D4, sequence (P21917 whole entry): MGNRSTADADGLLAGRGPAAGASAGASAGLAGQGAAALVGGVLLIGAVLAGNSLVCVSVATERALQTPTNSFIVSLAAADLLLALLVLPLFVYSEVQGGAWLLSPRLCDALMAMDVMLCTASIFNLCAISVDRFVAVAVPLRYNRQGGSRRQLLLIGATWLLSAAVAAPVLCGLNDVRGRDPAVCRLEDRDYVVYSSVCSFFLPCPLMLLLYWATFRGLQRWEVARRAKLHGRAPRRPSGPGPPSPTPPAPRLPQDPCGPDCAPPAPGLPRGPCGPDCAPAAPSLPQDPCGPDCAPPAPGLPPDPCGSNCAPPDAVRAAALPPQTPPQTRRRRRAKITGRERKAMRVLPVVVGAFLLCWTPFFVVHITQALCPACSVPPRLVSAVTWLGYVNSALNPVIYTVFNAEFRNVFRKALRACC
Serotonin receptor subtype 1A, sequence (P08908 whole entry): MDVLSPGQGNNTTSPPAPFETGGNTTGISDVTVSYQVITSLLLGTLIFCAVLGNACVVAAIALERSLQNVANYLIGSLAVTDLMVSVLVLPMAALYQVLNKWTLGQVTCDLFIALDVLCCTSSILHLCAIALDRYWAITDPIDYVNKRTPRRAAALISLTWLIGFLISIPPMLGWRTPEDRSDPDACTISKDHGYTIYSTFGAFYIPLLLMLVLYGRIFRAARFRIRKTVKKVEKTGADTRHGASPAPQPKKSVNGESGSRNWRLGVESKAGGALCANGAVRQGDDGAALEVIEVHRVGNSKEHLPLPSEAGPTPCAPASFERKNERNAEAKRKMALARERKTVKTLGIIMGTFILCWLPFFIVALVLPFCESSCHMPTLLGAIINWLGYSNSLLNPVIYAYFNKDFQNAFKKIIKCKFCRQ
Serotonin receptor subtype 1E, sequence (P28566 whole entry): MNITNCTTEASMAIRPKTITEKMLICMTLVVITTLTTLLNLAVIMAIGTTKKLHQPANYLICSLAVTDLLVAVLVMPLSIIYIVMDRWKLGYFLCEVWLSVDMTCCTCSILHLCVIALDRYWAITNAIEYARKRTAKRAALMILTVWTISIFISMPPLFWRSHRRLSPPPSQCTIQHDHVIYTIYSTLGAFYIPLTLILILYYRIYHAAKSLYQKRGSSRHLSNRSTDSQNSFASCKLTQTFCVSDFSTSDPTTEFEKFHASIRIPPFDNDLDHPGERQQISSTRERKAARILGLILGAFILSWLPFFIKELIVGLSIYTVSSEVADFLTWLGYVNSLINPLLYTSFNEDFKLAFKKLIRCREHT
Serotonin receptor subtype 1B, sequence (P28222 whole entry): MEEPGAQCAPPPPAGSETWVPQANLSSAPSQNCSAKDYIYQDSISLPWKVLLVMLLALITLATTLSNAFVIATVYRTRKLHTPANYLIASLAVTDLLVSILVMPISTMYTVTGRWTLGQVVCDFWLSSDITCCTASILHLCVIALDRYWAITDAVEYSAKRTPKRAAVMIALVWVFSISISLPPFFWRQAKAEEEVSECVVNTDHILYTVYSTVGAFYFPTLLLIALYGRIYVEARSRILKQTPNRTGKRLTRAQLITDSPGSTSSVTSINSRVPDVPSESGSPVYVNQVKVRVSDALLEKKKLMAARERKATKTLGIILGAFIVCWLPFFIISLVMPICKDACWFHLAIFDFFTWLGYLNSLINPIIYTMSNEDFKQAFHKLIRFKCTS
5-HT1B receptors, sequence (P28222 whole entry): as above
Adrenergic receptor subtype β3, sequence (P13945 whole entry): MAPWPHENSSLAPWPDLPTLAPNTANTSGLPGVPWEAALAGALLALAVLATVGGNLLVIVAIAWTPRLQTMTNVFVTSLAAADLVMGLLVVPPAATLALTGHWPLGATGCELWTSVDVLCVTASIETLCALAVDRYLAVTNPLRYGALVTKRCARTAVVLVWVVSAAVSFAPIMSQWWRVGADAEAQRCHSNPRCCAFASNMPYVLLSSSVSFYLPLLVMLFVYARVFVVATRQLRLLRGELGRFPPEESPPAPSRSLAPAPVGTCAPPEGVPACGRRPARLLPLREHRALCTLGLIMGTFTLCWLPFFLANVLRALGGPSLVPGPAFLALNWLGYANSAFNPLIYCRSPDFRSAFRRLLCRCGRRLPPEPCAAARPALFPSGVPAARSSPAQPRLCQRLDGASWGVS
Adrenergic receptor subtype α1a, sequence (P35348 whole entry): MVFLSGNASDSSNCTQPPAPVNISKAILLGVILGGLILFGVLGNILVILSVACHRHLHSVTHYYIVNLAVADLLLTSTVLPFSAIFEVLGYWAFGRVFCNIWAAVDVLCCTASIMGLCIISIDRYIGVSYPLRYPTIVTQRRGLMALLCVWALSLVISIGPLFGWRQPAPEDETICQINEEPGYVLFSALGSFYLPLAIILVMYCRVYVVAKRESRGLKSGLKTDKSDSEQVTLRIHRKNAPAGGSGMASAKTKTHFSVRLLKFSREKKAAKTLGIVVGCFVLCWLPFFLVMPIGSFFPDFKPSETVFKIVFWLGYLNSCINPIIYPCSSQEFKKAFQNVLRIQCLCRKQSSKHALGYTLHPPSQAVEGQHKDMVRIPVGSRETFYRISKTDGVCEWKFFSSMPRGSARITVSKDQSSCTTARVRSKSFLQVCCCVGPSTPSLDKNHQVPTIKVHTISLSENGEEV
Dopaminergic receptor subtype D2, sequence (P14416 whole entry): as the sequence (P14416 whole entry) above
5-HT1D receptors, sequence (P28221 whole entry): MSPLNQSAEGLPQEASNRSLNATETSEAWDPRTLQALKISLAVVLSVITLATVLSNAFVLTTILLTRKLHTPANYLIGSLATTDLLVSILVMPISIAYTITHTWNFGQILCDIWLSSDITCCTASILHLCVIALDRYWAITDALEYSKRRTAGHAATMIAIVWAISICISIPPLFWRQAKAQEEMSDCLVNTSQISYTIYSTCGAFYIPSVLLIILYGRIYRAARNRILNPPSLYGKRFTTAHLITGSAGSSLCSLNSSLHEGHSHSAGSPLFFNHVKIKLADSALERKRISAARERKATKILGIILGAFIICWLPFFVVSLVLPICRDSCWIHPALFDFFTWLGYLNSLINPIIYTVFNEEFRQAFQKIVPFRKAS
Serotonin receptor subtype 1D, sequence (P28221 whole entry): as above
Serotonin receptor subtype 3, sequence (P46098 24-478): as the sequence (P46098 24-478) above
Adrenergic receptor subtype α1b, sequence (P35368 whole entry): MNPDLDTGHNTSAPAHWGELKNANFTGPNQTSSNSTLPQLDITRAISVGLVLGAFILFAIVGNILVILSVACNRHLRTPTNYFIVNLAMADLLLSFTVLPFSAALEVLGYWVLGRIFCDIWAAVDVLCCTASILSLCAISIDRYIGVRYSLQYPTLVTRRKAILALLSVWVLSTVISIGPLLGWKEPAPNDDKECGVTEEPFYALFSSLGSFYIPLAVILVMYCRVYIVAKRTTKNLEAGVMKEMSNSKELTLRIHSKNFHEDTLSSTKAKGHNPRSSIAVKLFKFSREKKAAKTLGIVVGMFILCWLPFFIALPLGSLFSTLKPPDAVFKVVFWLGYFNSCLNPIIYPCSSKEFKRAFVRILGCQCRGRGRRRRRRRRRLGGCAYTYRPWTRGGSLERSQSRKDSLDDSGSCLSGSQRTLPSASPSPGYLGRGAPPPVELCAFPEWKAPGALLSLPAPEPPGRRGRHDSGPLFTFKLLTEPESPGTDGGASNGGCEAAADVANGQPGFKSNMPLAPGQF

CN1C[C@H](C(=O)N[C@]2(C)O[C@@]3(O)[C@@H]4CCCN4C(=O)[C@H](Cc4ccccc4)N3C2=O)C[C@@H]2c3cccc4[nH]cc(c34)C[C@H]21 [DHE, dihydroergotamine mesylate]
IC50 [1]: 3100 nM | IC50 [2]: 3700 nM | IC50 [3]: 60 nM | time to rapid pain relief [4]: ≤ 10 min | agonism at 5-HT2B receptors (5-HT2B receptors): agonism is absent | agonism at 5-HT1B receptors (5-HT1B receptors): maintained across all concentrations | IC50 [5]: 8.7 nM | IC50 [6]: 0.7 nM | time to rapid plasma levels (clinical; all three methods of administration (FIG. 2)): ≤ 20 min | difference in AUC (clinical; between 1 mg IV and 0.88 mg inhaled): 1.2 fold | Cmax (clinical; inhaled or intranasal, 0.44 mg): 1.34 ng/mL | Cmax (clinical; inhaled or intranasal, 0.88 mg): 4.29 ng/mL | Cmax (clinical; iv, 1 mg): 53.2 ng/mL | apparent binding at 5-HT1D receptors (5-HT1D receptors): lower than IV | binding at 5-HT1B (5-HT1B; Cmax following 0.88 mg inhaled dosing): 100% | binding at 5-HT1B (5-HT1B; Cmax following 1 mg intravenous dosing): 100% | binding at 5-HT3 receptors (5-HT3 receptors [7]): < 20% | IC50 [8]: 1.2 nM | IC50 [9]: 0.4 nM | IC50 [10]: 180 nM | IC50 [11]: 0.5 nM | IC50 [12]: 8.3 nM | binding activity at muscarinic (M) receptors (muscarinic (M) receptors): minimal binding activity | IC50 [13]: 6.4 nM | agonist or antagonist activity at 5-HT3 receptors (5-HT3 receptors [14]): lack of agonist or antagonist activity | IC50 [15]: 271 nM | treated patients with nausea [16]: ~16% | side effects observed ([17]; 0.44 mg dose inhaled): no side effects were observed | Dizziness, subjects (%) ([17]; 0.88 mg DHE Inhaled, n = 12): 1 (8) (%) | Feeling hot, subjects (%) ([17]; 0.88 mg DHE Inhaled, n = 12): 0 (%) | Nausea, subjects (%) ([17]; 0.88 mg DHE Inhaled, n = 12): 1 (8) (%) | Paresthesia, subjects (%) ([17]; 0.88 mg DHE Inhaled, n = 12): 0 (%) | Vomiting, subjects (%) ([17]; 0.88 mg DHE Inhaled, n = 12): 0 (%) | side effects observed ([17]; 0.88 mg dose inhaled): only minor side effects | Dizziness, number considered by investigator related to study drug (r) ([17]; 1 mg DHE IV, n = 16): 7 | Dizziness, subjects (%) ([17]; 1 mg DHE IV, n = 16): 7 (44) (%) | Feeling hot, number considered by investigator related to study drug (r) ([17]; 1 mg DHE IV, n = 16): 3 | Feeling hot, subjects (%) ([17]; 1 mg DHE IV, n = 16): 3 (19) (%) | Nausea, number considered by investigator related to study drug (r) ([17]; 1 mg DHE IV, n = 16): 10 | Nausea, subjects (%) ([17]; 1 mg DHE IV, n = 16): 10 (63) (%) | Paresthesia, number considered by investigator related to study drug (r) ([17]; 1 mg DHE IV, n = 16): 5 | Paresthesia, subjects (%) ([17]; 1 mg DHE IV, n = 16): 5 (31) (%) | Vomiting, number considered by investigator related to study drug (r) ([17]; 1 mg DHE IV, n = 16): 2 | Vomiting, subjects (%) ([17]; 1 mg DHE IV, n = 16): 2 (13) (%) | side effects observed ([17]; 1.0 mg IV DHE): significant side effects including nausea and emesis | incidence of nausea ([17]; inhaled): 8% | incidence of nausea ([17]; intravenous administration): 63% | IC50 [18]: 1100 nM | receptor binding in D2 assays (D2 receptor; IV dose Cmax levels): 50% | binding in D2 assays (D2 receptor; after inhaled dosing (Cmax levels)): no binding affinity | IC50 [19]: 6.6 nM | IC50 [20]: 1.3 nM

CN1C[C@H](C(=O)N[C@]2(C)O[C@@]3(O)[C@@H]4CCC(O)N4C(=O)[C@H](Cc4ccccc4)N3C2=O)C[C@@H]2c3cccc4[nH]cc(c34)C[C@H]21 (stereo partly drawn) [8′-OH Dihydroergotamine]
Concentration equivalent to peak plasma concentration (Cmax) (clinical; after DHE 0.44 mg inhaled): 0.058 ng/mL | Concentration equivalent to peak plasma concentration (Cmax) (clinical; after DHE 0.88 mg inhaled): 0.149 ng/mL | Concentration equivalent to peak plasma concentration (Cmax) (clinical; after DHE 1 mg IV (infusion over 3 minutes)): 0.378 ng/mL | Tmax of primary metabolite in circulating plasma (clinical; [23]): less than 90 minutes | peak plasma concentration of metabolite at Cmax (clinical; [23]): less than 1,000 pg/ml

CN1C[C@H](C(=O)N[C@]2(C)O[C@@]3(O)[C@@H]4CCCN4C(=O)[C@H](Cc4ccccc4)N3C2=O)C=C2c3cccc4[nH]cc(c34)C[C@H]21 [Ergotamine, ergotamine tartrate]
bioavailability [21]: up to 92% | onset of therapeutic efficacy ([22]; intranasal): 45 min | onset of therapeutic efficacy ([22]; oral or sublingual delivery): 120 min
